Experimental data published in patent publication US5847193A, “Labelled compound” (priority 1995, dated 1998).

What was measured:
human or rat gliomacyte = settings: cited from earlier work
rat glioma = assay: Uptake of ^11 C-labelled L-DABA into rat glioma cells in culture; format: cell-based; settings: medium with amino acid content close to the biological one, control phosphate-buffered saline, FIG. 7
Protocol: Biological applicability of the ^11 C-labelled L-DABA obtained in Example 3 was evaluated. The relationship between concentration of the L-DABA added to culture medium of rat glioma and uptake of radioactivity into the glioma cells in a given duration was investigated in a medium having an amino acid content close to the biological one, and for control, in a physiological saline buffered with phosphoric acid.

[1] = Sterility and exothermic substance check of the filtered ^11 C-labelled glutamic acid product; settings: after sterilized 0.2 μm filter
Protocol: NaOH of 2.5M was added to a reaction solution containing the γ-cyano-α-aminobutyric acid of which cyano group carbon being labelled with positron nuclide ^11 C, as obtained in Example 6, and temperature of the mixture was raised to 135° C. After the lapse of 15 minutes, the reaction solution was mixed with 8 ml 50 mM NaH2 PO4, and the resultant mixture was passed through an anion exchange resin (800 mg AGI-x8 200-400 mesh hydroxide form). After washing with 50 mM NaH2 PO4 in an amount of 6 ml, the reaction product was eluted with 150 mM NaH2 PO4 (pH adjusted to 2.8 with phosphoric acid), and the elute was received in a receptacle containing 150 μl 8.5% phosphoric acid. The contents were passed through a sterilized filter having a pore diameter of 0.2 μm for collection in bial.

Structure (SMILES)	incorporation into gliomacyte (human or rat gliomacyte)	also measured
N[C@@H](CCC(=O)O)C(=O)O [L-glutamic acid]	found to be incorporated into human or rat gliomacyte	
NC(=O)CC[C@H](N)C(=O)O [L-glutamine]	found to be incorporated into human or rat gliomacyte	
N[11CH2]C[C@H](N)C(=O)O [^11 C-labelled L-DABA, L-2,4-diaminobutyric acid (L-DABA) labelled with ^11 C]		uptake of radioactivity into the glioma cells (rat glioma): dependent on the concentration of it in culture medium
NCCC(N)C(=O)O (stereo not drawn) [2,4-Diaminobutyric acid (DABA), 2,4-Diaminobutyric acid]	found to be incorporated into human or rat gliomacyte	
N[C@@H](CC[11C](=O)O)C(=O)O [^11 C-labelled glutamic acid]		exothermic substance [1]: no exothermic substance was detected; sterility of product [1]: germ-free
